Results taken from publication PMC6801822, “The Bactericidal Activity of Temporin Analogues Against Methicillin Resistant Staphylococcus aureus” (International Journal of Molecular Sciences, 2019).
Values after ≈ are worked out from the molar mass of the structure shown. Non-standard residues stand in square brackets, D forms with d. Residues, ends and D or L forms follow the SMILES beside them. AEEA = NCCOCCOCC(=O)O

Columns and labels:
[1] = system: MRSA clinical isolate 7219; conditions: MRSA clinical isolate 7219 (blood); broth microdilution, MHB, 24 h
Method: (§1) Antimicrobial activity of peptides was analyzed through determination of MIC parameter according to the standard microdilution technique performed on 96-well plates. Mueller-Hinton broth (MHB, Sigma Aldrich, St. Louis, MO, USA) was used as the working medium for all bacterial strains. Briefly, inoculum was prepared from freshly grown cultures of bacteria being at their exponential phase of growth. Each well of 96-well plates containing 100 µL of serially diluted peptides in PBS at desired concentration was inoculated with 100 µL of 10^5 CFU/mL of bacterial suspension. Then plates were incubated overnight 37 °C and absorbance was read at 600 nm after 24 h. Wells without peptide were treated as the positive control, while uninoculated MHB was defined as the negative control. All measurements were run in triplicates.

S. aureus USA300 biofilm = assay: Disruption of mature biofilm, crystal violet; conditions: mature biofilm (24 h) of USA300, peptide at 4 × MIC (160 μg/mL), n = 3
Method: USA300 strain was grown in 96-well plates at 37 °C for 24 h to form biofilm. Peptide was added at desired concentrations and plates were incubated for additional 24 h. […] Mean ± SD n = 3. ** p < 0.0151; one-way ANOVA.
Briefly, USA300 strain grown overnight was diluted 1:100 in TSB + 1% glucose and incubated in 96-well plates at 37 °C for 24 h. After removing media, wells were rinsed with PBS to remove planktonic bacteria before re-filling wells with fresh MHB. Peptide conjugates were added at desired concentrations and plates were incubated at 37 °C for 24 h. After incubation, wells were washed and biofilms were stained with 0.5% (w/v) crystal violet for 30 min. The dye was solubilized with ethanol (95%) and the OD of biofilms was measured.

[2] = system: MRSA clinical isolate 7569; conditions: MRSA clinical isolate 7569 (blood); broth microdilution, MHB, 24 h
Method: as §1

S. aureus ATCC 25923 = conditions: S. aureus ATCC 25923; broth microdilution, MHB, 37 °C, 24 h, triplicates
Method: as §1

[3] = system: MRSA clinical isolate 2872cv; conditions: MRSA clinical isolate 2872cv (blood); broth microdilution, MHB, 24 h
Method: as §1

[4] = system: S. epidermidis ATCC 12228; conditions: S. epidermidis ATCC 12228; broth microdilution, MHB, 37 °C, 24 h, triplicates
Method: as §1

[5] = cited from earlier work
Source text: The efficient antibacterial activity of the DAL-PEG-DK5 conjugate may be due to the fact that it has a higher cationic charge than DK5 (+7 vs. +6, respectively). However, a α-helicity must also play an important role in this case. According to a common view about the mechanism underlying the antimicrobial activity of AMPs, formation of hel ...

[6] = system: MRSA clinical isolate 7501; conditions: MRSA clinical isolate 7501 (blood); broth microdilution, MHB, 24 h
Method: as §1

Compound: CC[C@H](C)[C@H](NC(=O)COCCOCCNC(=O)[C@H](CCCNC(=N)N)NC(=O)[C@H](CC(C)C)NC(=O)[C@H](Cc1ccccc1)NC(=O)CNC(=O)[C@@H](C)NC(=O)[C@@H](N)Cc1ccc(O)cc1)C(=O)N[C@@H](CCCCN)C(=O)N[C@@H](CCCCN)C(=O)N[C@H](C(=O)N[C@@H](CC(C)C)C(=O)N[C@@H](CO)C(=O)N[C@H](CCCCN)C(=O)N[C@H](C(=O)N[C@@H](CCCCN)C(=O)N[C@@H](CCCCN)C(=O)N[C@@H](CC(C)C)C(=O)N[C@@H](CC(C)C)C(N)=O)[C@@H](C)CC)[C@@H](C)CC [DAL-PEG-DK5] (H-Y[dA]GFLR[AEEA]IKKILS[dK]IKKLL-NH2; N-terminus assumed)
- MIC [1]: 30 µg/mL (≈ 13.2 µM)
- reduction of biofilm mass (S. aureus USA300 biofilm): 50%
- MIC [2]: 40 µg/mL (≈ 17.6 µM)
- MIC (S. aureus ATCC 25923): 40 µg/mL (≈ 17.6 µM)
- MIC [3]: 40 µg/mL (≈ 17.6 µM)
- MIC [4]: 60 µg/mL (≈ 26.4 µM)
- α-helical content ([5]; circular dichroism, 30 mM SDS in water): 35%
- cationic charge [5]: +7
- MIC [6]: 40 µg/mL (≈ 17.6 µM)
